Measured values reported in ChEMBL document CHEMBL1681661, “Design of novel CXCR4 antagonists that are potent inhibitors of T-tropic (X4) HIV-1 replication” (Bioorg Med Chem Lett, 2011).

Columns and labels:
[1] = system: Human immunodeficiency virus 1; test: Antiviral activity against X4 tropic HIV1 NL4.3 infected in CD4 and CXCR4 expressing human MT4 cells assessed as inhibition of viral cytopathicity; format: functional, organism-based; conditions: Human immunodeficiency virus 1, NL4.3, MT4
[2] = Cytotoxicity against human MT4 cells expressing CD4 and CXCR4 assessed as cell viability; format: cell-based
[3] = biological target: T1, C-X-C chemokine receptor type 4 (Homo sapiens, UniProt P61073); test: Antagonist activity at CXCR4 in human CEM-CCRF cells assessed as inhibition of SDF-1-induced calcium signaling; format: functional, cell-based
T1 sequence (P61073 whole entry): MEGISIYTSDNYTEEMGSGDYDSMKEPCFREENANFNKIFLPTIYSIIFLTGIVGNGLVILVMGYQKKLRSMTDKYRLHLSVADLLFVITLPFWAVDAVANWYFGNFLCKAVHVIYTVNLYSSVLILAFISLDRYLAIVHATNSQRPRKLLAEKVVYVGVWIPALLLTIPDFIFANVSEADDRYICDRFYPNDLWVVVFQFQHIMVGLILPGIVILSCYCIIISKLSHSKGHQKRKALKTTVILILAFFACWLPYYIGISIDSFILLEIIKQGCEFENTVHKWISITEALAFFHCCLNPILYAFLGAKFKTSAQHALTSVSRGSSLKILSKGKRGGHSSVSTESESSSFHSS

[4] = system: Human immunodeficiency virus 1; test: Antiviral activity against X4 tropic HIV1 NL4.3 infected in human PBMC assessed as inhibition of viral cytopathicity; format: functional, organism-based; conditions: Human immunodeficiency virus 1, NL4.3
[5] = system: Human immunodeficiency virus 1; test: Antiviral activity against X4 tropic HIV1 NL4.3 infected in human PBMC assessed as inhibition of viral cytopathicity in presence of 1 mg/ml of alpha-acid glycoprotein; format: functional
[6] = Cmax in rat; format: ADME, organism-based; conditions: in vivo
[7] = Cmax in dog; format: ADME, organism-based, Canis lupus familiaris; conditions: in vivo
[8] = AUC (0 to infinity) in rat; format: ADME, organism-based; set-up: time infinity; concentration or dose not given beside the values; conditions: plasma
[9] = AUC (0 to infinity) in dog; format: ADME, organism-based, Canis lupus familiaris; set-up: time infinity; concentration or dose not given beside the values; conditions: plasma
[10] = Oral bioavailability in rat at 100 umol/kg, […]; format: ADME, organism-based; conditions: in vivo
[11] = biological target: T1, C-X-C chemokine receptor type 4; test: Displacement of [125I]SDF-1alpha from CXCR4 in human CEM-CCRF cells by liquid scintillation counting; format: cell-based
[12] = Clearance in rat at 10 umol/kg, iv; format: ADME, organism-based; conditions: in vivo
[13] = Clearance in dog at 5 umol/kg, iv; format: ADME, organism-based, Canis lupus familiaris; conditions: in vivo
[14] = Volume of distribution at steady state in rat at 10 umol/kg, iv; format: ADME, organism-based; conditions: in vivo, read-out: Vdss
[15] = Volume of distribution at steady state in dog at 5 umol/kg, iv; format: ADME, organism-based, Canis lupus familiaris; conditions: in vivo, read-out: Vdss
[16] = Half life in rat at 10 umol/kg, iv; format: ADME, organism-based; conditions: in vivo
[17] = Half life in dog at 5 umol/kg, iv; format: ADME, organism-based, Canis lupus familiaris; conditions: in vivo
[18] = Oral bioavailability in dog at 12.5 umol/kg; format: ADME, organism-based, Canis lupus familiaris; conditions: in vivo

| Structure (SMILES) | IC50 [1] [nM] | CC50 [2] [nM] | other results |
| --- | --- | --- | --- |
| NCCCCN(Cc1cccc(N)n1)C1CCCc2cccnc21 (racemic) | 30 | 158000 |  |
| CC(c1cccc(N)n1)N(CCCCN)Cc1nc2ccccc2[nH]1 (stereo not given) | 2290 | > 149000 |  |
| Cc1cnc(CN(CCCCN)C(C)c2ccccn2)c(C)c1 (racemic) | 1.8 | 163000 | IC50 [3]: 20 nM |
| CC(c1ccccn1)N(CCCCN)Cc1ncccc1N (racemic) | 18.4 | 167000 | IC50 [3]: 72 nM |
| CC(C)(c1ccccn1)N(CCCCN)Cc1nc2ccccc2[nH]1 | 2500 | > 159000 |  |
| NCCCCN(Cc1ccccn1)C1CCCc2cccnc21 (racemic) | 15.3 | 165000 |  |
| Cc1ccc(C(C)N(CCCCN)Cc2nc3ccccc3[nH]2)nc1 (stereo not given) | 3.8 | > 146000 |  |
| Cc1cccc(CN(CCCCN)C(C)c2ccccn2)n1 (racemic) | 15 | > 145000 | IC50 [3]: 183 nM |
| Cc1ccnc(C(C)N(CCCCN)Cc2ncccc2C)c1 (racemic) | 0.3 | 138000 |  |
| Cc1cccc(C(C)N(CCCCN)Cc2nc3ccccc3[nH]2)n1 (stereo not given) | 4100 | > 167000 |  |
| Cc1ccc(CN(CCCCN)C2CCCc3cccnc32)nc1 (racemic) | 5.3 | 35300 | IC50 [3]: 35 nM |
| Cc1cccnc1CN(CCCCN)C1CCCc2cccnc21 (racemic) | 23.3 | 32400 |  |
| Cc1ccnc(C(C)N(CCCCN)Cc2nc3ccccc3[nH]2)c1 (stereo not given) | 438 | > 142000 |  |
| CC(C)c1cccnc1CN(CCCCN)C1CCCc2cccnc21 (racemic) | 8.4 | 33800 |  |
| NCCCCN(Cc1ccccn1)Cc1nc2ccccc2[nH]1 | 41 | 151000 |  |
| NCCCCN(Cc1ncccc1N)C1CCCc2cccnc21 (racemic) | 19.7 | 169000 |  |
| NCCCCN(Cc1ncccc1CO)C1CCCc2cccnc21 (racemic) | 2.1 | 155000 |  |
| NCCCCN(Cc1nc2ccccc2[nH]1)[C@H]1CCCc2cccnc21 [MAVORIXAFOR] | 4.8 |  |  |
| Cc1cccc(CN(CCCCN)[C@H]2CCCc3cccnc32)n1 | 2.4 |  | IC50 [4]: 15.8 nM; fold change (FC) [5]: 0.6; Cmax [6]: 1460 nM; Cmax [7]: 2060 nM; AUC(0-inf) [8]: 8.75 µM·h; AUC(0-inf) [9]: 7.75 µM·h |
| Cc1cccnc1CN(CCCCN)[C@@H](C)c1ccccn1 | 1.1 |  | IC50 [4]: 2.1 nM; fold change (FC) [5]: 14.2; Cmax [6]: 1580 nM; AUC(0-inf) [8]: 11.2 µM·h; AUC(0-inf) [9]: 7.49 µM·h |
| NCCCCN(Cc1nc2ccccc2[nH]1)Cc1ncccc1O | > 149000 | > 149000 |  |

| Structure (SMILES) | IC50 [1] [nM] | CC50 [2] [nM] | other results |
| --- | --- | --- | --- |
| Cc1ccc(CN(CCCCN)C(C)c2ccccn2)nc1 (racemic) | 48.1 | 158000 |  |
| NCCCCN(Cc1nc2ccccc2[nH]1)C(c1ccccc1)c1ccccn1 (stereo not given) | 13300 | > 148000 |  |
| CC(c1ccccn1)N(CCCCN)Cc1nc2ccccc2[nH]1 (stereo not given) | 18 | > 161000 |  |
| C[C@@H](c1ccccn1)N(CCCCN)Cc1nc2ccccc2[nH]1 | 1.4 |  | IC50 [4]: 2 nM; fold change (FC) [5]: 5.4; Cmax [6]: 180 nM; Cmax [7]: 1330 nM; AUC(0-inf) [8]: 0.33 µM·h; AUC(0-inf) [9]: 1.7 µM·h |
| CC(C)C(c1ccccn1)N(CCCCN)Cc1nc2ccccc2[nH]1 (stereo not given) | 16300 | > 162000 |  |
| Cc1ccnc(CN(CCCCN)C2CCCc3cccnc32)c1 (racemic) | 47.8 | 36900 |  |
| Cc1cccnc1CN(CCCCN)C(C)c1ccccn1 (stereo not given) | 1.1 | 45400 |  |
| CC(c1ccccn1)N(CCCCN)Cc1ncccc1C(F)(F)F (racemic) | 39.1 | > 155000 | IC50 [3]: 111 nM |
| CC(C)c1cccnc1CN(CCCCN)Cc1nc2ccccc2[nH]1 | 34 | 145000 |  |
| Cc1cccnc1C(C)N(CCCCN)Cc1nc2ccccc2[nH]1 (stereo not given) | 505 | > 146000 |  |
| NCCCCN(Cc1ncccc1O)C1CCCc2cccnc21 (racemic) | 113 | 149000 |  |
| COCc1cccc(CN(CCCCN)C2CCCc3cccnc32)n1 (racemic) | 553 | > 154000 |  |
| Cc1cnc(CN(CCCCN)C2CCCc3cccnc32)c(C)c1 (racemic) | 0.63 | 32600 | IC50 [3]: 19 nM |
| NCCCCN(Cc1ncccc1Cl)C1CCCc2cccnc21 (stereo not given) | 0.4 | 191000 |  |
| Cc1cccc(CN(CCCCN)C2CCCc3cccnc32)n1 (racemic) | 2.9 | 299000 |  |
| NCCCCN(Cc1ncccc1N)[C@H]1CCCc2cccnc21 | 1.6 |  | IC50 [4]: 2.1 nM; fold change (FC) [5]: 4.3; Cmax [6]: 1660 nM; Cmax [7]: 7740 nM; AUC(0-inf) [8]: 8.73 µM·h; AUC(0-inf) [9]: 21.2 µM·h |
| Cc1cc(C)nc(CN(CCCCN)C2CCCc3cccnc32)c1 (racemic) | 17 | 149000 |  |
| CC(c1ccccn1)N(CCCCN)Cc1ncccc1C(C)(C)C (racemic) | 1.6 | 158000 |  |
| CCC(c1ccccn1)N(CCCCN)Cc1nc2ccccc2[nH]1 (stereo not given) | 874 | > 162000 |  |
| Cc1cnc(CN(CCCCN)[C@H]2CCCc3cccnc32)c(C)c1 | 7.7 |  | bioavailability [10]: 42%; IC50 [11]: 62.9 nM; IC50 [4]: 3.6 nM; fold change (FC) [5]: 2.8; Cmax [6]: 2700 nM; Cmax [7]: 7160 nM; AUC(0-inf) [8]: 20.7 µM·h; AUC(0-inf) [9]: 22.1 µM·h; clearance [12]: 31.7 mL/min/kg; clearance [13]: 3.3 mL/min/kg; Vd [14]: 28.5 L/kg; Vd [15]: 8.7 L/kg; half-life [16]: 10.5 h; half-life [17]: 39.6 h; bioavailability [18]: 51% |
